Converted amounts (≈) assume the structure as drawn.
Assays:
[1] = test system: Lactobacillus casei ATCC 334; assay: MIC against human normal gut microbiota; assay type: cell-based; conditions: MRS broth, 5% CO2, 48 hours
Procedure, shortened: (§1)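 Anaerobic gut strains in hemin/vitamin K/L-cysteine-supplemented BHI, Lactobacillus in MRS with 5% CO2. All at ~5×10^5 CFU/ml and 37° C, with 48 h exposure to compound dilution series.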

[2] = test system: Bifidobacterium breve—JCP7499 HIM 1120; assay: MIC against human normal gut microbiota; assay type: cell-based; conditions: BHIS broth, anaerobic, 48 hours
Procedure, shortened: as §1

[3] = test system: Bacteroides dorei—CL02T12C06 HM-719; assay: MIC against human normal gut microbiota; assay type: cell-based; conditions: BHIS broth, anaerobic, 48 hours
Procedure, shortened: as §1

[4] = test system: Bifidobacterium longum subsp. Longum—44B HM 845; assay: MIC against human normal gut microbiota; assay type: cell-based; conditions: BHIS broth, anaerobic, 48 hours
Procedure, shortened: as §1

[5] = test system: Bacteroides fragilis—CL07T00C01 HIM-709; assay: MIC against human normal gut microbiota; assay type: cell-based; conditions: BHIS broth, anaerobic, 48 hours
Procedure, shortened: as §1

[6] = test system: Mutant-7 of Enterococcus fecalis NR 31975; assay: microbe, parasite or virus in culture; assay type: cell-based; conditions: Mutant-7
[7] = test system: Staphylococcus epidermidis NRS 101; assay: MIC against Staphylococci, broth microdilution; assay type: cell-based; conditions: TSB
Procedure, shortened: (§2)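 CLSI broth microdilution in tryptone soy broth, inoculum about 5×10^5 CFU/mL from overnight agar cultures at 0.5 McFarland, with serially diluted compound. Plates were incubated aerobically at 37° C for 18-20 h. MIC was the lowest concentration with no visible growth.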

[8] = test system: MRSA NRS 384 (MRSA USA300); assay: MIC against Staphylococci, broth microdilution; assay type: cell-based, Staphylococcus aureus; conditions: TSB
Procedure, shortened: as §2

[9] = test system: Mutant-13 of Enterococcus fecalis NR 31975; assay: microbe, parasite or virus in culture; assay type: cell-based; conditions: Mutant-13
[10] = test system: Mutant-9 of Enterococcus fecalis NR 31975; assay: microbe, parasite or virus in culture; assay type: cell-based; conditions: Mutant-9
[11] = test system: Mutant-3 of Enterococcus fecalis NR 31975; assay: microbe, parasite or virus in culture; assay type: cell-based; conditions: Mutant-3
[12] = test system: Mutant-12 of Enterococcus fecalis NR 31975; assay: microbe, parasite or virus in culture; assay type: cell-based; conditions: Mutant-12
[13] = test system: Mutant-5 of Enterococcus fecalis NR 31975; assay: microbe, parasite or virus in culture; assay type: cell-based; conditions: Mutant-5
[14] = test system: Mutant-2 of Enterococcus fecalis NR 31975; assay: microbe, parasite or virus in culture; assay type: cell-based; conditions: Mutant-2
[15] = test system: Enterococcus faecium Patient #2-1-NR-31909; assay: MIC, broth microdilution in TSB; assay type: cell-based; conditions: TSB; for MIC: Table 1; for MIC in TSB: Table 7
Procedure, shortened: (§3)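 Strains were grown aerobically overnight on tryptone soya agar at 37° C, adjusted to 0.5 McFarland and diluted to about 5×10^5 CFU/mL. Compounds were serially diluted across the wells, and plates were incubated aerobically at 37° C for 18-20 hours.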

[16] = test system: Enterococcus faecalis—S613 HM-334; assay: MIC, broth microdilution in TSB; assay type: cell-based; conditions: TSB; for MIC: Table 1; for MIC in TSB: Table 7
Procedure, shortened: as §3

[17] = test system: Enterococcus fecalis Strain SF 24397 NR31970; assay: MIC, broth microdilution in TSB; assay type: cell-based; conditions: TSB; for MIC: Table 1; for MIC in TSB: Table 7
Procedure, shortened: as §3

[18] = test system: Enterococcus faecium Patient #3-1 NR-31912; assay: MIC, broth microdilution in TSB; assay type: cell-based; conditions: TSB; for MIC: Table 1; for MIC in TSB: Table 7
Procedure, shortened: as §3

[19] = test system: Enterococcus fecalis Strain MMH594-NR31975; assay: MIC, broth microdilution in TSB; assay type: cell-based; conditions: TSB; for MIC: Table 1; for MIC in TSB: Table 7
Procedure, shortened: as §3

[20] = test system: Enterococcus fecalis Strain SF24413 NR31971; assay: MIC, broth microdilution in TSB; assay type: cell-based; conditions: TSB; for MIC: Table 1; for MIC in TSB: Table 7
Procedure, shortened: as §3

[21] = test system: Enterococcus fecalis Strain SF 28073-NR31972; assay: MIC, broth microdilution in TSB; assay type: cell-based; conditions: TSB; for MIC: Table 1; for MIC in TSB: Table 7
Procedure, shortened: as §3

[22] = test system: Enterococcus faecium E417-HM-965; assay: MIC, broth microdilution in TSB; assay type: cell-based; conditions: TSB; for MIC: Table 1
Procedure, shortened: as §3

[23] = test system: Mutant-15 of Enterococcus fecalis NR 31975; assay: microbe, parasite or virus in culture; assay type: cell-based; conditions: Mutant-15
[24] = test system: Mutant-11 of Enterococcus fecalis NR 31975; assay: microbe, parasite or virus in culture; assay type: cell-based; conditions: Mutant-11
[25] = test system: Mutant-6 of Enterococcus fecalis NR 31975; assay: microbe, parasite or virus in culture; assay type: cell-based; conditions: Mutant-6

| Structure (SMILES) | MIC [1] [mg/L] | MIC [2] [mg/L] | MIC [3] [mg/L] | MIC [4] [mg/L] | MIC [5] [mg/L] | MIC [6] [mg/L] | MIC [7] [mg/L] | MIC [8] [mg/L] | MIC [9] [mg/L] | MIC [10] [mg/L] | MIC [11] [mg/L] | MIC [12] [mg/L] | MIC [13] [mg/L] | MIC [14] [mg/L] | MIC [15] [mg/L] | MIC in TSB [15] [mg/L] | MIC [16] [mg/L] | MIC in TSB [16] [mg/L] | MIC [17] [mg/L] | MIC in TSB [17] [mg/L] | also measured |
| --- | --- | --- | --- | --- | --- | --- | --- | --- | --- | --- | --- | --- | --- | --- | --- | --- | --- | --- | --- | --- | --- |
| NS(=O)(=O)c1nnc(NC(=O)CCC2CCCC2)s1 [CAI0015] | >64 | >64 | >64 | >64 | >64 | 0.25 (≈ 0.821 µM) | >64 | >64 | 1 (≈ 3.29 µM) | 1 (≈ 3.29 µM) | 1 (≈ 3.29 µM) | 2 (≈ 6.57 µM) | 1 (≈ 3.29 µM) | 2 (≈ 6.57 µM) | 0.125 (≈ 0.411 µM) | 0.06 (≈ 0.197 µM) | 0.125 (≈ 0.411 µM) | 0.06 (≈ 0.197 µM) | 0.125 (≈ 0.411 µM) | 0.06 (≈ 0.197 µM) | MIC [18]: 1 mg/L (≈ 3.29 µM); MIC in TSB [18]: 0.125 mg/L (≈ 0.411 µM); MIC [19]: 0.06 mg/L (≈ 0.197 µM); MIC in TSB [19]: 0.06 mg/L (≈ 0.197 µM); MIC [20]: 0.06 mg/L (≈ 0.197 µM); MIC in TSB [20]: 0.06 mg/L (≈ 0.197 µM); MIC [21]: 0.125 mg/L (≈ 0.411 µM); MIC in TSB [21]: 0.06 mg/L (≈ 0.197 µM); MIC [22]: 0.25 mg/L (≈ 0.821 µM); MIC in TSB ([22]; Table 7): 0.06 mg/L (≈ 0.197 µM); MIC [23]: 1 mg/L (≈ 3.29 µM); MIC [24]: 2 mg/L (≈ 6.57 µM); MIC [25]: 1 mg/L (≈ 3.29 µM) |
| CC(C)=CC(=O)Nc1nnc(S(N)(=O)=O)s1 [CAI0016, 3-Methyl-N-(5-sulfamoyl-1,3,4-thiadiazol-2-yl) but-2-enamide] | >64 | >64 | >64 | >64 | >64 | 4 (≈ 15.2 µM) | >64 | >64 | 4 (≈ 15.2 µM) | 4 (≈ 15.2 µM) | 4 (≈ 15.2 µM) | 8 (≈ 30.5 µM) | 4 (≈ 15.2 µM) | 8 (≈ 30.5 µM) | 0.5 (≈ 1.91 µM) | 0.25 (≈ 0.953 µM) | 0.5 (≈ 1.91 µM) | 0.25 (≈ 0.953 µM) | 0.5 (≈ 1.91 µM) | 0.25 (≈ 0.953 µM) | MIC [18]: 1 mg/L (≈ 3.81 µM); MIC in TSB [18]: 0.5 mg/L (≈ 1.91 µM); MIC [19]: 0.5 mg/L (≈ 1.91 µM); MIC in TSB [19]: 0.25 mg/L (≈ 0.953 µM); MIC [20]: 0.5 mg/L (≈ 1.91 µM); MIC in TSB [20]: 0.5 mg/L (≈ 1.91 µM); MIC [21]: 0.5 mg/L (≈ 1.91 µM); MIC in TSB [21]: 0.5 mg/L (≈ 1.91 µM); MIC [22]: 0.25 mg/L (≈ 0.953 µM); MIC [23]: 8 mg/L (≈ 30.5 µM); MIC [24]: 4 mg/L (≈ 15.2 µM); MIC [25]: 16 mg/L (≈ 61 µM) |

Reference: patent US12378211B2, “Carbonic anhydrase inhibitors and antibiotics against multidrug resistant bacteria” (Purdue Research Foundation, priority 2018, dated 2025)
